In PubChem BioAssay AID1259407 (Chemical Carcinogenesis Research Information System (CCRIS), 2018) one finds mutagenic call data, which are given here for nine compounds.

Calls of active or inactive are those of the source. How the calls were made is not given here.

In the data set the test system is CCRIS mutagenicity, Ames/micronucleus/aberration tests. Briefly: CCRIS mutagenicity studies.
Setting [1] is: Test System: AMES SALMONELLA TYPHIMURIUM, Strain/Indicator: TA98, Metabolic Activation: NONE, Method: STANDARD PLATE.
The mark [2] stands for this setting: Test System: AMES SALMONELLA TYPHIMURIUM, Strain/Indicator: TA100, Metabolic Activation: NONE, Method: STANDARD PLATE.
Where [3] appears, read: Test System: AMES SALMONELLA TYPHIMURIUM, Strain/Indicator: TA1535, Metabolic Activation: NONE, Method: STANDARD PLATE.
Setting [4] is: Test System: AMES SALMONELLA TYPHIMURIUM, Strain/Indicator: TA1537, Metabolic Activation: NONE, Method: STANDARD PLATE.
The mark [5] stands for this setting: Test System: AMES SALMONELLA TYPHIMURIUM, Strain/Indicator: TA98, Metabolic Activation: NONE, Method: PREINCUBATION

Turning to `CN(C)N=Nc1ccc([N+](=O)[O-])cc1`, the mutagenic call was “active; positive” (Test System: AMES SALMONELLA TYPHIMURIUM, Strain/Indicator: TA92, Metabolic Activation: MOUSE, LIVER, S-9, POLYCHLORINATED BIPHENYLS, Method: PREINCUBATION); “active; positive” (Test System: AMES SALMONELLA TYPHIMURIUM, Strain/Indicator: TA92, Metabolic Activation: MOUSE, LIVER, S-9, POLYCHLORINATED BIPHENYLS, Method: STANDARD PLATE); “active; positive” (Test System: AMES SALMONELLA TYPHIMURIUM, Strain/Indicator: TA92, Metabolic Activation: NONE, Method: STANDARD PLATE); “active; positive” (Test System: AMES SALMONELLA TYPHIMURIUM, Strain/Indicator: TA97, Metabolic Activation: MOUSE, LIVER, S-9, POLYCHLORINATED BIPHENYLS, Method: PREINCUBATION); “active; positive” (Test System: AMES SALMONELLA TYPHIMURIUM, Strain/Indicator: TA97, Metabolic Activation: MOUSE, LIVER, S-9, POLYCHLORINATED BIPHENYLS, Method: STANDARD PLATE); “active; positive” (Test System: AMES SALMONELLA TYPHIMURIUM, Strain/Indicator: TA97, Metabolic Activation: NONE, Method: STANDARD PLATE). The mutagenic call runs as follows: (Test System: AMES SALMONELLA TYPHIMURIUM, Strain/Indicator: TA98, Metabolic Activation: MOUSE, LIVER, S-9, POLYCHLORINATED BIPHENYLS, Method: PREINCUBATION) “active; positive”; (Test System: AMES SALMONELLA TYPHIMURIUM, Strain/Indicator: TA98, Metabolic Activation: MOUSE, LIVER, S-9, POLYCHLORINATED BIPHENYLS, Method: STANDARD PLATE) “active; positive”; under setting [1], “active; positive”; (Test System: AMES SALMONELLA TYPHIMURIUM, Strain/Indicator: TA100, Metabolic Activation: MOUSE, LIVER, S-9, POLYCHLORINATED BIPHENYLS, Method: PREINCUBATION) “active; positive”; (Test System: AMES SALMONELLA TYPHIMURIUM, Strain/Indicator: TA100, Metabolic Activation: MOUSE, LIVER, S-9, POLYCHLORINATED BIPHENYLS, Method: STANDARD PLATE) “active; positive”; under setting [2], “active; positive”. The mutagenic call reads like this: (Test System: AMES SALMONELLA TYPHIMURIUM, Strain/Indicator: TA1535, Metabolic Activation: MOUSE, LIVER, S-9, POLYCHLORINATED BIPHENYLS, Method: PREINCUBATION) “active; positive”; (Test System: AMES SALMONELLA TYPHIMURIUM, Strain/Indicator: TA1535, Metabolic Activation: MOUSE, LIVER, S-9, POLYCHLORINATED BIPHENYLS, Method: STANDARD PLATE) “active; positive”; under setting [3], “active; positive”; (Test System: AMES SALMONELLA TYPHIMURIUM, Strain/Indicator: TA1537, Metabolic Activation: MOUSE, LIVER, S-9, POLYCHLORINATED BIPHENYLS, Method: PREINCUBATION) “active; positive”; (Test System: AMES SALMONELLA TYPHIMURIUM, Strain/Indicator: TA1537, Metabolic Activation: MOUSE, LIVER, S-9, POLYCHLORINATED BIPHENYLS, Method: STANDARD PLATE) “active; positive”; under setting [4], “active; positive”. Besides, the mutagenic call by setting is: (Test System: AMES SALMONELLA TYPHIMURIUM, Strain/Indicator: TA1538, Metabolic Activation: MOUSE, LIVER, S-9, POLYCHLORINATED BIPHENYLS, Method: PREINCUBATION) “active; positive”; (Test System: AMES SALMONELLA TYPHIMURIUM, Strain/Indicator: TA1538, Metabolic Activation: MOUSE, LIVER, S-9, POLYCHLORINATED BIPHENYLS, Method: STANDARD PLATE) “active; positive”; (Test System: AMES SALMONELLA TYPHIMURIUM, Strain/Indicator: TA1538, Metabolic Activation: NONE, Method: STANDARD PLATE) “active; positive”.
Regarding `c1ccc(-c2nc(-c3ccccc3)c(-c3ccccc3)[nH]2)cc1`, the mutagenic call by setting is: under setting [1], “active; positive”; (Test System: AMES SALMONELLA TYPHIMURIUM, Strain/Indicator: TA98, Metabolic Activation: RAT LIVER S-9, 3-METHYLCHOLANTHRENE, SODIUM PHENOBARBITAL, Method: STANDARD PLATE) “inactive; negative”; under setting [2], “active; positive”; (Test System: AMES SALMONELLA TYPHIMURIUM, Strain/Indicator: TA100, Metabolic Activation: RAT LIVER S-9, 3-METHYLCHOLANTHRENE, SODIUM PHENOBARBITAL, Method: STANDARD PLATE) “inactive; negative”.
`CCCOS(C)(=O)=O`: the mutagenic call (End Point: IN VITRO MICRONUCLEUS, Test System: MOUSE LYMPHOMA L5178Y CELLS, Metabolic Activation: NONE) is “active; positive”; the mutagenic call (End Point: IN VITRO MICRONUCLEUS, Test System: MOUSE LYMPHOMA L5178Y CELLS, Metabolic Activation: RAT, LIVER, S-9) is “inactive; negative; authors report results as weakly positive”; the mutagenic call (End Point: In vitro micronucleus, Test System: Chinese Hamster Ovary (CHO-WBL) cells, Metabolic Activation: None) is “active; positive (p<0.01)”; the mutagenic call under setting [2] is “active; positive”; the mutagenic call (Test System: AMES SALMONELLA TYPHIMURIUM, Strain/Indicator: TA100, Metabolic Activation: RAT, LIVER, S-9, Method: STANDARD PLATE) is “active; positive”.
For `Nc1nc(N)c(-c2ccccc2)s1`, the mutagenic call is “active; positive. reevaluation of results: inconclusive” (Test System: MOUSE LYMPHOMA, Strain/Indicator: L5178Y (TK+/TK-), Metabolic Activation: NONE, Method: SUSPENSION/PLATE) and “active; positive. reevaluation of results: inconclusive” (Test System: MOUSE LYMPHOMA, Strain/Indicator: L5178Y (TK+/TK-), Metabolic Activation: RAT, LIVER, S-9, AROCLOR 1254, Method: SUSPENSION/PLATE).
As to `Cc1ccc2cc3c(ccc4ccccc43)c3c2c1C(=O)C3`, the mutagenic call (Test System: CHINESE HAMSTER V-79, Strain/Indicator: V-79/8-AZAGUANINE, Metabolic Activation: RAT, LIVER, S-9, AROCLOR 1254, Method: STANDARD PLATE) was “active; positive”.
As to `O=C1c2ccccc2C(=O)c2c1cc(O)c(C(=O)O)c2O`, the mutagenic call by setting is: under setting [5], “inactive; negative”; (Test System: AMES SALMONELLA TYPHIMURIUM, Strain/Indicator: TA98, Metabolic Activation: RAT, LIVER, S-9, PCB, Method: PREINCUBATION) “inactive; negative”; (Test System: AMES SALMONELLA TYPHIMURIUM, Strain/Indicator: TA100, Metabolic Activation: NONE, Method: PREINCUBATION) “inactive; negative”; (Test System: AMES SALMONELLA TYPHIMURIUM, Strain/Indicator: TA100, Metabolic Activation: RAT, LIVER, S-9, PCB, Method: PREINCUBATION) “inactive; negative”.
Regarding `O=[N+]([O-])c1ccc2c(c1)Cc1cc(O)ccc1-2`, the mutagenic call by setting is: under setting [5], “active; positive”; (Test System: AMES SALMONELLA TYPHIMURIUM, Strain/Indicator: TA98, Metabolic Activation: S-9, Method: PREINCUBATION) “active; positive”.
As for `COC(=O)c1cc(OC)c2c(c1-c1c(C(=O)OC)cc(OC)c3c1OCO3)OCO2`, the mutagenic call was “inactive; negative” under setting [1]; “inactive; negative” (Test System: AMES SALMONELLA TYPHIMURIUM, Strain/Indicator: TA98, Metabolic Activation: S-9, Method: STANDARD PLATE); “inactive; negative” under setting [2]; “inactive; negative” (Test System: AMES SALMONELLA TYPHIMURIUM, Strain/Indicator: TA100, Metabolic Activation: S-9, Method: STANDARD PLATE); “inactive; negative” under setting [3]; “inactive; negative” (Test System: AMES SALMONELLA TYPHIMURIUM, Strain/Indicator: TA1535, Metabolic Activation: S-9, Method: STANDARD PLATE). Also, the mutagenic call is “inactive; negative” under setting [4] and “inactive; negative” (Test System: AMES SALMONELLA TYPHIMURIUM, Strain/Indicator: TA1537, Metabolic Activation: S-9, Method: STANDARD PLATE).
For `CC(C)(Br)C(=O)NCc1ccccc1`, the mutagenic call was “inactive; negative” (Test System: AMES SALMONELLA TYPHIMURIUM, Strain/Indicator: TA100, Metabolic Activation: MOUSE, LIVER, S-9, AROCLOR 1254, Method: STANDARD PLATE) and “inactive; negative” under setting [2].
